Legend:
GCase = test: FTI treatment of wild-type mice: GCase maturation and activity in cortex; format: in vivo; details: daily i.p. 0.9 mg/kg, 14 days
Method: FIGS. 15A, 15B, 15C, 15D, 15E, and 15F. FTI treatment of wild-type mice enhances ykt6 SNARE complexes, lysosomal activity, and reduces a-syn. 15A) Wild-type mice (C57Bl/6) were i.p. injected daily with FTI for 14 days at 0.9 mg/kg and compared to vehicle injected mice. Extracts from the cortex were analyzed for cytosolic (cyt) and membrane (mem) distribution of ykt6 (veh, n=5; FTI, n=6). 15B) Representative gel filtration/western blot analysis of cortical extracts of veh or FTI injected wild-type mice. Inputs are shown on the left. NSE indicates equal column loading. 15C) Quantification of ykt6 and STX5 complexes (ca. 120A) from gel filtration analysis in C (n=4 mice). Fraction 1 corresponds to complexes at 120A, while fractions 7-9 correspond to ykt6 monomers at 22-14 A. 15D) The levels of post ER (endo H resistant) GCase were analyzed by western blot and post ER/ER ratios were quantified from the cortex of FTI treated mice (veh, n=5; FTI, n=6). 15E) GCase activity was assessed in cortical lysates and normalized to total protein (veh, n=4; FTI, n=6). 15F) a-Syn levels were quantified from cytosolic or membrane isolated fractions from the cortex of wild-type FTI treated mice (veh, n=4; FTI, n=6). For all quantifications, values are the mean+/−SEM, *p<0.05.
Analysis of post-ER GCase. […]

DASYN53 mice = test: Behavioral analysis of DASYN53 mice (body weight, Rotarod); format: in vivo; details: i.p. 0.9 mg/kg
Source text: FIGS. 8A, 8B, 8C, 8D, 8E, and 8F. FTI treatment enhances GCase activity and reduces pathological a-syn in transgenic mice. 8A) GCase activity in the midbrain of FTI (LNK-754)-treated DASYN53 mice (treated as in FIG. 7) (n=4, veh; n=5, FTI). 8B & 8C) Quantification of soluble and insoluble a-syn from midbrains of FTI-treated DASYN53 mice normalized to total protein (CBB). Syn211 is selective for human (hu) a-syn; C20 and syn303 detect mouse (ms) and hu a-syn, (n=3, nTg+Veh; n=4, DASYN53+veh; n=5 DASYN53+FTI). 8D) Midbrain TH levels were quantified by western blot of FTI-treated DASYN53 mice (n=3). 8E) Body weight of FTI-treated DASYN53 mice (n=9, nTg+Veh; n=7, DASYN53+veh; n=7 DASYN53+FTI). 8F) Rotarod test of FTI-treated DASYN53 mice (n=12, nTg+Veh; n=7, DASYN53+veh; n=7 DASYN53+FTI). Values are the mean+/−SEM. *p<0.05, **p<0.01, and *** p<0.001. Student's t-test, panel A; ANOVA with Tukey's posthoc test, panels B-F.
Behavioral analysis of DASYN53 mice. These assays were done as previously described (Tsika et al., 2010). […] Balance and motor behavior testing was done at the end of the injection protocol (between days 24-26) and determined using a Rotarod apparatus (Ugo Basile) with acceleration from 4-40 rpm over a 300 second period. Latency to fall was recorded over 4 trials per mouse, and the data were presented as the average of 3 trials (excluding the first trial as a training session). […]

C#Cc1cccc(-c2cc(=O)n(C)c3ccc([C@](O)(c4ccc(Cl)cc4)c4cncn4C)cc23)c1 [LNK-754]
mature, endo H resistant GCase in brain (GCase; cortex): elevated levels
GCase enzyme activity in brain (GCase; cortical lysates): higher enzyme activity
reduction in body weight of DASYN53 mice (DASYN53 mice; day 23-24): rescued
reduction in motor performance (Rotarod) of DASYN53 mice (DASYN53 mice; days 24-26): rescued

Source: patent publication US12226410B2, “Methods for enhancing cellular clearance of pathological molecules via activation of the cellular protein ykt6” (NORTHWESTERN UNIVERSITY, priority 2019, dated 2025)
